Tests used:
[1] = test system: Sporothrix schenkii B62482; test: Antifungal activity in vitro (resazurin susceptibility screen), Inf. A; format: cell-based; details: Sporothrix, B62482, Sporothrix schenkii B62482; 27 °C, 4 days, resa time 24 hours; highest in-test concentration 64 μM; read-out: Inf. A pIC50 (converted)
Description: (§1) The standard susceptibility screen was performed in 96-well plates (U-bottom, Greiner Bio-One). […] These serial dilutions (10 n1) were then spotted onto test-plates that could be stored in the dark at 4° C. for a maximum period of 2 weeks. […] The different fungal species/isolates (Table 3a) were cryopreserved and 1/1000 diluted in medium just prior to use. A standard inoculum of 200 μl containing 10^3 colony-forming unit (cfu) was then added to each well. A positive control (100% growth=fungal culture without antifungal) and a negative control (0% growth ═RPMI-MOPS medium) were included on each plate. […] [table]

[2] = test system: Trichophyton rubrum B68183; test: Antifungal activity in vitro (resazurin susceptibility screen), Inf. C; format: cell-based; details: Trichophyton rubrum B68183; 27 °C, 7 days, resa time 24 hours; read-out: Inf. C pIC50 (converted)
Description: as §1

[3] = target: CYP3A4 (Homo sapiens, UniProt P08684); test: Cytochrome P450 inhibition, Protocol A, cDNA expressed proteins, fluorogenic substrates; format: in vitro ADME; details: % inhibition at 10 μM, cDNA expressed protein
Sequence of CYP3A4 (P08684 whole entry): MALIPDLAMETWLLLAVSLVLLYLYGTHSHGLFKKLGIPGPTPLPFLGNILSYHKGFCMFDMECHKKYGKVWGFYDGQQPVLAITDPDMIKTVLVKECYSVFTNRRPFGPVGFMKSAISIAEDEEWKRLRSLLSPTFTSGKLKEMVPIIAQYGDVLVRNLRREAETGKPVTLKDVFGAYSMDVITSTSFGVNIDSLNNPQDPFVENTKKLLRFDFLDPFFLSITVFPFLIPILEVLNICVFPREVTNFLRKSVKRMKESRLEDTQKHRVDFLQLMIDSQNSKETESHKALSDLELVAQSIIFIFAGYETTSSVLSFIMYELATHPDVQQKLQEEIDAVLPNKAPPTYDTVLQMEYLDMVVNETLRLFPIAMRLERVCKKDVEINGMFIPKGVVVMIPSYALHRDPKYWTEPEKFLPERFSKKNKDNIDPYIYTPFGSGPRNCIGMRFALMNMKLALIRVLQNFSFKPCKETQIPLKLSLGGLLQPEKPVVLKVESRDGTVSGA
Description: (§2) All fluorogenic based assays were performed in Black Costar 96-well plates according to Crespi et al 1997 with minor modifications (Crespi C L, Miller V P & Penman B W (1997). Microtiter plate assays for inhibition of human, drug-metabolizing cytochromes P450. Anal. Biochem. Vol 248, 1898-1900). Assay conditions are outlined in Table 5a. For cytochrome P450 3A4, three different fluorogenic substrates were used. Each reaction mixture consisted of the appropriate concentration of enzyme, NADPH-generating system (“NADPH” means β-nicotinamide adenine dinucleotide phosphate, reduced), substrate in sodium/potassium buffer (pH 7.4). For each cytochrome P450 batch Michealis-Menten kinetics were determined using 11 concentrations.
(§3) Thereafter, further dilutions were made in acetonitrile. […] The compounds were serially diluted to give final concentrations ranging from 1 nM to 10 μM. The reaction mixtures, whereby 1 μL of buffer was replaced by compound solution, were pre-warmed for 5 min at 37° C. and the reaction was initiated by the addition of β-nicotinamide adenine dinucleotide phosphate (NADP+). Reactions were terminated by addition of stopping reagent and the fluorescence was measured using a Fluoroscan (Labsystems, Brussel, Belgium).
(§4) In Table 5a, the following abbreviations were used: 3-cyano-7-ethocycoumarin (CEC), 7-methoxy-4-trifluoromethylcoumarin (MFC), 3-[2-(N,N-diethyl-N-methylamino)ethyl]-7-methoxy-4-methylcoumarin (AMMC), 7-benzyloxy-trifluoromethyl coumarin (BFC), 7-benzyloxyquinoline (BQ) and dibenzyl fluorescein (DBF).

[4] = test system: Aspergillus fumigatus B42928; test: Antifungal activity in vitro (resazurin susceptibility screen), Inf. E; format: cell-based; details: Aspergillus fumigatus B42928; 27 °C, 48 hours, resa time 17 hours; read-out: Inf. E pIC50 (converted)
Description: as §1

[5] = Liver metabolic stability assay, hLM; format: in vitro ADME, human; details: human liver microsomes, 1 mg protein/ml, 5 μM test compound, 15 min, 37 °C
Description: Liver preparations (microsomal fractions) were obtained from BD Gentest (San Jose, Calif., US). Metabolic stability was assessed using the following assay conditions. […] The mixture was pre-incubated at 37° C. for 5 min and the enzymatic reaction was started by addition of 5 μM test compound. After 0 (control) and 15 minutes (min), the reactions were terminated by addition of […] (500 μl). The precipitated material was removed by centrifugation at 1200 g for 10 min. The supernatant was analysed by LC-MS/MS on a ThermoFinnigan LCQ Deca XP ion-trap mass spectrometer equipped with an atmospheric pressure chemical ionisation source. Calculation of %-compound remaining was as described by Kantharaj et al. 2003 ((Kantharaj E., Tuytelaars A, Proost P E A, Ongel Z, van […] (2003). Simultaneous measurement of drug metabolic stability and identification of metabolites using ion-trap mass spectrometry.

[6] = test system: Candida parapsilosis B66126; test: Antifungal activity in vitro (resazurin susceptibility screen), Inf. D; format: cell-based; details: Lodderomyces parapsilosis; Candida parapsilosis B66126; 37 °C, 24 hours, resa time 4 hours; read-out: Inf. D pIC50 (converted)
Description: (§5) The standard susceptibility screen was performed in 96-well plates (U-bottom, Greiner Bio-One). […] These serial dilutions (10 n1) were then spotted onto test-plates that could be stored in the dark at 4° C. for a maximum period of 2 weeks. […] A standard inoculum of 200 μl containing 10^3 colony-forming unit (cfu) was then added to each well. A positive control (100% growth=fungal culture without antifungal) and a negative control (0% growth ═RPMI-MOPS medium) were included on each plate.

[7] = test system: Trichophyton mentagrophytes B70554; test: Antifungal activity in vitro (resazurin susceptibility screen), Inf. G; format: cell-based; details: Trichophyton mentagrophytes, B70554, Trichophyton mentagrophytes B70554; 27 °C, 7 days, resa time 24 hours; read-out: Inf. G pIC50 (converted)
Description: as §5

[8] = test system: Cryptococcus neoformans B66663; test: Antifungal activity in vitro (resazurin susceptibility screen), Inf. F; format: cell-based; details: Cryptococcus neoformans, B66663, Cryptococcus neoformans B66663; 37 °C, 24 hours, resa time 4 hours; read-out: Inf. F pIC50 (converted)
Description: as §1

[9] = test system: Microsporum canis B68128; test: Antifungal activity in vitro (resazurin susceptibility screen), Inf. B; format: cell-based; details: Microsporum canis, B68128, Microsporum canis B68128; 27 °C, 9 days, resa time 24 hours; read-out: Inf. B pIC50 (converted)
Description: as §5

[10] = target: T1, CYP1A2 (Homo sapiens, UniProt P05177); test: Cytochrome P450 inhibition, Protocol A, cDNA expressed proteins, fluorogenic substrate; format: in vitro ADME; details: % inhibition at 10 μM; substrate CEC; cDNA expressed protein
T1 sequence (P05177 1-516): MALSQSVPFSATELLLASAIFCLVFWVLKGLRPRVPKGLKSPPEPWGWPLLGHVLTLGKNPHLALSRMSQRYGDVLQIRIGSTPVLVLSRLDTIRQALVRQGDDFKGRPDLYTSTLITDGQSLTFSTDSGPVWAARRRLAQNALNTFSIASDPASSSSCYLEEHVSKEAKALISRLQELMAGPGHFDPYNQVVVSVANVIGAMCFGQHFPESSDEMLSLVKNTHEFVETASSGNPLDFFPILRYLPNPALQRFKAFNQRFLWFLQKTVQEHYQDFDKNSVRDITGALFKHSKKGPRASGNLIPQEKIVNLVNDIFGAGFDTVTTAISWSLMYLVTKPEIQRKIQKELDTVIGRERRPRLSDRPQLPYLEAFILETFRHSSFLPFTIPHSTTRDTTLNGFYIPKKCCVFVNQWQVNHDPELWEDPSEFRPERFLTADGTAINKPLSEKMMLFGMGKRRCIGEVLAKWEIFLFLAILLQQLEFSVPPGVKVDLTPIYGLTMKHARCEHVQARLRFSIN
Description: as §2, §3, §4

[11] = target: CYP2D6 (Homo sapiens, UniProt P10635); test: as above; format: in vitro ADME; details: % inhibition at 10 μM; substrate AMMC; cDNA expressed protein
Sequence of CYP2D6 (P10635 whole entry): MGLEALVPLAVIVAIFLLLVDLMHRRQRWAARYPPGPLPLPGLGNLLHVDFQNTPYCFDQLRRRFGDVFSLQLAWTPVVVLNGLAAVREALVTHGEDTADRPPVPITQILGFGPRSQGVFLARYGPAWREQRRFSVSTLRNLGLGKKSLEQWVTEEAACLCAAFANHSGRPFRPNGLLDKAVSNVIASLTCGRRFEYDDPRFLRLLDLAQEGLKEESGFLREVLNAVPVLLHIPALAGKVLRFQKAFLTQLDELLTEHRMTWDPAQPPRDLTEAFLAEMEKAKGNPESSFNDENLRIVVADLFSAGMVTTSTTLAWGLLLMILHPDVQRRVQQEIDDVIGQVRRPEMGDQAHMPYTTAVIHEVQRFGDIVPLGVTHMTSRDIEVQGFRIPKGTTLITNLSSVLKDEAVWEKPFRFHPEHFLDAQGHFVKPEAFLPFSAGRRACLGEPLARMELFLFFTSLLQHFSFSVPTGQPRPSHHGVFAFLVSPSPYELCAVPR
Description: as §2, §3, §4

[12] = target: CYP2C9 (Homo sapiens, UniProt P11712); test: as above; format: in vitro ADME; details: % inhibition at 10 μM; substrate MFC; cDNA expressed protein
Sequence of CYP2C9 (P11712 whole entry): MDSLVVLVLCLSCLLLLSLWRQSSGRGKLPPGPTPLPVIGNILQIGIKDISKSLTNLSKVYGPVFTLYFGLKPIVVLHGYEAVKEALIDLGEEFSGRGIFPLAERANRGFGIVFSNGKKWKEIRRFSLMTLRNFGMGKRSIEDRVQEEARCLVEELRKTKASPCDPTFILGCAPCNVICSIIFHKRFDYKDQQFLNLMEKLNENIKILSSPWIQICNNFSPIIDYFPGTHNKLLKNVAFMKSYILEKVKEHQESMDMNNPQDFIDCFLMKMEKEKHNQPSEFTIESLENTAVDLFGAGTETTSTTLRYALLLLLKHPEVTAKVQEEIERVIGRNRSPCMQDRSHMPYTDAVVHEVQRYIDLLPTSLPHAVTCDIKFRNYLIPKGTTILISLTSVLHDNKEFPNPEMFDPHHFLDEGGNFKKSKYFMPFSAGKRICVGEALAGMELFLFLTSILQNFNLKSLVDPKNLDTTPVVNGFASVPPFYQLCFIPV
Description: as §2, §3, §4

[13] = target: Cytochrome P450 2C9 (Homo sapiens, UniProt P11712); test: Human liver microsomal cytochrome P450 cocktail inhibition assay, Protocol C; details: 2C9 Tolbut pIC50, human liver microsomes 0.2 mg/ml; probe tolbutamide 100 microM
Sequence of Cytochrome P450 2C9 (P11712 whole entry): as above
Description: (§6) Probe substrates and final assay concentrations with the appropriate internal standard are outlined in Table 6a.
(§7) Assays were performed in 0.1 M phosphate buffer (pH 7.4), containing 0.2 mg/ml human liver microsomes (BD Gentest) and a probe substrate mix consisting of: phenacetin, tolbutamide, S-mephenyloin, dextromethorphan, amodiaquine and midazolam (Table 6a) and a range of test compound concentrations (0 to 30 micromolar) in a total volume of 100 microliters. After a 10 min pre-incubation at 37° C., the reaction was started with addition of NADPH at a final concentration of 1.0 mM. […] The samples are centrifuged for 10 min at 4° C. at 4000 rpm and 60 microliters supernatant is diluted with 180 microliters water. Each sample is injected onto a UPLC/MS system for the simultaneous measurement of the probe substrate metabolites and their associated deuterated internal standards. Percentage inhibition is calculated according to: %-inhibition=(1−Ri/R)*100, whereby Ri and R are the metabolite to internal standard peak area ratios in the presence and absence of inhibitor respectively.
(§8) Percentage inhibition data are plotted against the Log transformed test compound concentration and after curve fitting the IC50-value is determined.

[14] = target: T2, Cytochrome P450 1A2 (Homo sapiens, UniProt P05177); test: as above
T2 sequence (P05177 1-516): T1 sequence (P05177 1-516)
Description: as §6, §7, §8

[15] = target: Cytochrome P450 2D6 (Homo sapiens, UniProt P10635); test: as above; details: 2D6_Dextro pIC50, human liver microsomes 0.2 mg/ml; probe dextromethorphan 3 microM
Sequence of Cytochrome P450 2D6 (P10635 whole entry): as the sequence (P10635 whole entry) above
Description: as §6, §7, §8

[16] = target: Cytochrome P450 2C19 (Homo sapiens, UniProt P33261); test: as above; details: 2C19_S-Meph pIC50, human liver microsomes 0.2 mg/ml; probe S-mephenytoin 30 microM
Sequence of Cytochrome P450 2C19 (P33261 whole entry): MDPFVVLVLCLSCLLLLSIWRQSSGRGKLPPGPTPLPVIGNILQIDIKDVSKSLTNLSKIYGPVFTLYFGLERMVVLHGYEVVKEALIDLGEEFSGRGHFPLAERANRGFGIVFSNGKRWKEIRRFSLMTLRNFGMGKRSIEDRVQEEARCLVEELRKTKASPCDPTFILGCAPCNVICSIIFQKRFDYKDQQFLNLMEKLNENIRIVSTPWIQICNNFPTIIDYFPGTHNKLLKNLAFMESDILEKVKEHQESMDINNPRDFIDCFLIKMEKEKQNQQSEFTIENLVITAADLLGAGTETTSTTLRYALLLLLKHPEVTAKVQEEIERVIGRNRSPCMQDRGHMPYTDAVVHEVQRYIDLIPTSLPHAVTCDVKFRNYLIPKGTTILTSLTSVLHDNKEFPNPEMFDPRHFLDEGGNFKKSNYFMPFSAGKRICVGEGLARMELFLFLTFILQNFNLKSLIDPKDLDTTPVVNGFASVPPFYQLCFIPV
Description: as §6, §7, §8

Row | SMILES | IC50 [1] [µM] | IC50 [2] [µM] | hCYP3A4_BFC_Pct_Inh ([3]; substrate BFC) [%] | hCYP3A4_BQ_Pct_Inh ([3]; substrate BQ) [%] | hCYP3A4_DBF_Pct_Inh ([3]; substrate DBF) [%] | IC50 [4] [µM] | %-compound metabolised_Met_hLM [5] [%] | IC50 [6] [µM] | IC50 [7] [µM] | IC50 [8] [µM] | IC50 [9] [µM] | hCYP1A2_CEC_Pct_Inh [10] [%] | hCYP2D6_AMMC_Pct_Inh [11] [%] | hCYP2C9_MFC_Pct_Inh [12] [%] | melting point [°C] | IC50 [13] [µM] | IC50 [14] [µM] | IC50 [15] [µM] | IC50 [16] [µM]
1 | CC(=O)c1ccc(C2=NCc3c(Cl)ccc(Cl)c3-n3cccc32)cc1 [Compound 25, 1-[4-(7,10-dichloro-6H-pyrrolo[1,2-a][1,4]benzodiazepin-4-yl)phenyl]-ethanone] | > 63.1 | 5.01 | 21 | 29 | 21 | > 63.1 | 80 | > 63.1 | 10 | > 63.1 | 3.16 | 21 | 11 | 45 | – | – | – | – | –
2 | CS(=O)(=O)c1ccc(C2=NCc3c(F)cccc3-n3cccc32)cc1 [Compound 29, 7-fluoro-4-[4-(methylsulfonyl)phenyl]-6H-pyrrolo[1,2-a][1,4]benzodiazepine] | > 63.1 | 2.51 | – | – | – | 50.1 | – | > 63.1 | 6.31 | 31.6 | 10 | – | – | – | 92 to 95 | – | – | – | –
3 | CS(=O)(=O)c1cccc(C2=NCc3c(Cl)cc(Cl)cc3-n3cccc32)c1 [Compound 31, 7,9-dichloro-4-[3-(methylsulfonyl)phenyl]-6H-pyrrolo[1,2-a][1,4]benzodiazepine] | > 63.1 | > 63.1 | – | – | – | > 63.1 | – | > 63.1 | > 63.1 | > 63.1 | > 63.1 | – | – | – | 221.2 to 221.5 | – | – | – | –
4 | CC(=O)c1ccc(C2NCc3c(Cl)cccc3-n3cccc32)cc1 (stereo not shown) [drawing 94] | – | – | – | – | – | – | – | – | – | – | – | – | – | – | – | 3.16 | > 10 | 3.16 | 3.16

— patent US9040523B2, “Antifungal 5,6-dihydro-4H-pyrrolo[1,2-α][1,4]-benzodiazepines and 6H-pyrrolo[1,2-α][1,4]benzodiazepines substituted with benzene derivatives” (JANSSEN PHARMACEUTICA NV, priority 2010, dated 2015)
